Assay [1] has as its target T1, NbPYL1b (Nicotiana benthamiana, UniProt Z9Z2X8O5T5).
T1 construct: full ORF amplified from Nb genomic DNA (CDS 678 nt, 225 residues by count) in pETM11, His-tagged, E. coli BL21(DE3), Ni-NTA; dimer in gel filtration (apo); assayed with N-terminally truncated HAB1 (ΔN-HAB1); with Protein phosphatase 2C 16
T1 sequence (Z9Z2X8O5T5 1-225): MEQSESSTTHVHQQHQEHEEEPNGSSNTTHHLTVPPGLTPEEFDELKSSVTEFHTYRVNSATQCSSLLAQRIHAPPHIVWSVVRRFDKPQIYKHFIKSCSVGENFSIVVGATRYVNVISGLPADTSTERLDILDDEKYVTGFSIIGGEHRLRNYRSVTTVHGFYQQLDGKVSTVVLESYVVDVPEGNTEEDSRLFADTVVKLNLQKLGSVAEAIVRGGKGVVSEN
T1 sequence (Q9CAJ0 172-511 partner limits assumed): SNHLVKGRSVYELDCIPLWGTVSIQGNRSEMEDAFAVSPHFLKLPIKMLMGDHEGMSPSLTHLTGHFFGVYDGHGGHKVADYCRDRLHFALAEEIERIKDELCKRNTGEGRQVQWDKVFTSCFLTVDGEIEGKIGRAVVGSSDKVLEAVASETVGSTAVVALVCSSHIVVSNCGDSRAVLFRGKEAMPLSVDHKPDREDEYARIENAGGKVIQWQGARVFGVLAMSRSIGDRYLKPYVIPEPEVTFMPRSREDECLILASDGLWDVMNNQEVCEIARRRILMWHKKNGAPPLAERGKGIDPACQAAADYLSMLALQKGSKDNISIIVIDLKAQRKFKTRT
In words: ligand-dependent inhibition of PP2C HAB1 by receptor, pNPP, […] nm. In kind it is biochemical. Particulars: 0.5 μM ΔN-HAB1, 1 or 2 μM NbPYL1b, 25 mM pNPP, 2 mM MnCl2, 25 mM Tris HCl pH 7.5; agonist, IC50 read on HAB1 activity.

For assay [2], the target named is T2, ΔN-HAB1 (Arabidopsis thaliana, UniProt Q9CAJ0).
T2 sequence (Q9CAJ0 172-511 limits assumed): T1 sequence (Q9CAJ0 172-511 partner limits assumed)
In words: phosphatase turnover, […] nm, […] min. The assay is classed as biochemical. The settings on record: 25 mM pNPP, 2 mM MnCl2, 25 mM Tris HCl pH 7.5.

In general, IC50 refers to the concentration at which inhibition is half-maximal. `Cc1ccc(CS(=O)(=O)Nc2ccc(C#N)c(C3CC3)c2)cc1` [CB] showed an IC50 in assay [1] of 126 nM.

Take `O=[N+]([O-])c1ccc(OP(=O)(O)O)cc1` [pNPP]: in assay [2], the “phosphatase turnover, 405 nm, 30 min” value is on record as “Phosphatase activity was measured using p-nitrophenyl phosphate (pNPP) as a substrate”.

For the origin of these results see paper PMC8909036 (Cells, 2022).
